Experimental data as given in the Kinase Knowledgebase extract (Sharma et al. 2016).

Target: PIK3CD (Human) (UniProt O00329)
Experiment: Assessment of PIK3CD Kinase Activity

Sequence of PIK3CD (Human) (O00329 whole entry, looked up): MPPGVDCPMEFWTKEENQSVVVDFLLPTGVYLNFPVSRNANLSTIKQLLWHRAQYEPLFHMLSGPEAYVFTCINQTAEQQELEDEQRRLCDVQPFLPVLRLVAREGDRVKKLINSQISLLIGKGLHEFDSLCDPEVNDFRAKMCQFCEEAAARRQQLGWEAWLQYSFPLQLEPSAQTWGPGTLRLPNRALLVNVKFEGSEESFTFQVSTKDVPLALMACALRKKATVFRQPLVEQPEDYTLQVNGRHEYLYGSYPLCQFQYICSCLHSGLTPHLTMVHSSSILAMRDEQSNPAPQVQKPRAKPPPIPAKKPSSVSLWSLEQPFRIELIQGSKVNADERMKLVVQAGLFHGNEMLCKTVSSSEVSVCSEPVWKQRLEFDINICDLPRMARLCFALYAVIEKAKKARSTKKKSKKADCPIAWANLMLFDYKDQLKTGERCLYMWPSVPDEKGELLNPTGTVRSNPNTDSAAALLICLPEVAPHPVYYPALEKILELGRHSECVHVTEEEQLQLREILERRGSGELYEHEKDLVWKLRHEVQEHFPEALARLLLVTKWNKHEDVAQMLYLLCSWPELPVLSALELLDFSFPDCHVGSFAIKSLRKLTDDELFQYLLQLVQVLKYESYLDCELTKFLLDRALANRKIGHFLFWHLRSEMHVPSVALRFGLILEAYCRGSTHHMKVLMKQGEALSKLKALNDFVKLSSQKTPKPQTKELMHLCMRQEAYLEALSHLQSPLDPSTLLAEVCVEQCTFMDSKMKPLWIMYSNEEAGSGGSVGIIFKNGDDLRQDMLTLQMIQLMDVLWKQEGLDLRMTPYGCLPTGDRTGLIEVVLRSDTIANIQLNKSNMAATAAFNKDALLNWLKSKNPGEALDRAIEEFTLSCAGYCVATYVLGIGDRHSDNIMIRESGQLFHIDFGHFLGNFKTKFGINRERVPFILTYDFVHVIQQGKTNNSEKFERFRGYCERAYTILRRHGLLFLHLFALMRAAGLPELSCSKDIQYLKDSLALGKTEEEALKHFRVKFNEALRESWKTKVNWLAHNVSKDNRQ

| IC50 [nM] | SMILES |
| --- | --- |
| 50 to 250 | Cc1ccc(C)c(-c2nc3c(C)cccc3cc2Cn2cnc3c(N)ncnc32)c1 |
| 500 to 1500 | CNCCN(C)c1nc2c(C)cccc2cc1COc1cccc(OC)c1 |
| 500 to 1500 | COc1ccc(NCc2cc3cccc(C)c3nc2-c2ccccc2Cl)cc1OC |
| 500 to 1500 | COc1cccc(NCc2cc3cccc(C)c3nc2-c2ccccc2Cl)c1 |
| 500 to 1500 | Cc1cccc2cc(CNC(=O)c3nccnc3N)c(N3CCC(N(C)C(=O)OC(C)(C)C)CC3)nc12 |
| < 50 | CN(C)Cc1ccccc1-c1cc2c(Cl)cccc2nc1CNC(=O)c1nccnc1N |
| 250 to 500 | Cc1cccc2cc(CNC(=O)c3nccnc3N)c(N3C[C@H](C)NC[C@H]3C)nc12 |
| 50 to 250 | Cc1cccc2cc(CNC(=O)c3nccnc3N)c(N(C)CCN(C)C(=O)[C@@H]3CCCN3)nc12 |
| 500 to 1500 | Cc1cccc2cc(Cn3cnc4c(N)ncnc43)c(N3CCC4CCCCC4C3)nc12 (configuration not stated) |
| 500 to 1500 | COc1cnc(C(=O)NCc2nc3ccccc3cc2-c2ccccc2C)c(N)n1 |
| 50 to 250 | CNCCCC(C)c1nc2c(C)cccc2cc1CNC(=O)c1nccnc1N (configuration not stated) |
| 500 to 1500 | COc1cc(NCc2cc3cccc(C)c3nc2-c2ccccc2Cl)cc(OC)c1 |
| 500 to 1500 | COc1ccc(OCc2cc3cccc(C)c3nc2-c2ccccc2Cl)c(Cl)c1 |
| 500 to 1500 | COc1cc(OC)cc(OCc2cc3cccc(C)c3nc2-c2ccccc2Cl)c1 |
| 250 to 500 | CCOc1ccccc1-c1nc2c(C)cccc2cc1Cn1cnc2c(N)ncnc21 |
| 500 to 1500 | CNCCN(C)c1nc2c(C)cccc2cc1CNc1cccc(OC)c1 |
| 500 to 1500 | Cc1ccc(S(=O)(=O)C(C)CCN(C)c2nc3c(C)cccc3cc2CNC(=O)c2nccnc2N)cc1 (configuration not stated) |
